Test system: SKOV-3 cells
Test: Annexin V / propidium iodide apoptosis assay by flow cytometry
Type: cell-based, human
Conditions: for Apoptotic Cells (%) Mean, Day2 / Apoptotic Cells (%) Mean, Day3 / Apoptotic Cells (%) Mean, Day4: 1 μM, Q1 and Q2, mean of three experiments, * p < 0.01 vs untreated; for Apoptotic Cells (%) Mean, Day2 / percentage of apoptotic cells (Q1, Q2 quadrants), day 2: 2 days; for Apoptotic Cells (%) Mean, Day3 / percentage of apoptotic cells (Q1, Q2 quadrants), day 3: 3 days; for Apoptotic Cells (%) Mean, Day4 / percentage of apoptotic cells (Q1, Q2 quadrants), day 4: 4 days; for percentage of apoptotic cells (Q1, Q2 quadrants), day 2 / percentage of apoptotic cells (Q1, Q2 quadrants), day 3 / percentage of apoptotic cells (Q1, Q2 quadrants), day 4: 1 μΜ, 37 °C, representative experiment (Figure 5)
Source text: We next evaluate the abilities of Con-3 and Con-7 at concentrations of 1 μΜ to induce cell death by determining the percentages of live, apoptotic and necrotic cells after treatment of SKOV-3 cells with the GnRH conjugates. As shown in Figure 5 and Figures S1–S3 on day 2, the majority of SKOV-3 cells were viable (Q4 quadrant), treated either with Con-3, Con-7 or mitoxantrone, whereas the percentage of apoptotic cells (late or early apoptotic) (Q1, Q2 quadrants) was only 10.1%, 10.87% and 13.1% after treatment with Con-3, Con-7 or mitoxantrone, respectively. […] Cell viability further decreased on day 4 with a concomitant increase in apoptosis. Specifically, the percentage of apoptotic cells was 53.5%, 59.6% and 54.3% after treatment with Con-3, Con-7 or mitoxantrone (Figure 5 and Figures S7–S9). In all phases, the percentage of the necrotic and late apoptotic cells (Q3 quadrant) was very small.
Figure 5 Determination of viability, apoptosis, or necrosis of SKOV-3 cells after their treatment with 1 μM Con-3, Con-7, or mitoxantrone for 2, 3, and 4 days at 37 °C. At the end of the incubation the cells were further incubated in binding buffer supplied by Biotium, (CF488A Apoptosis Detection kit) and analyzed on a flow cytometer (excitation 488 nm), in the FITC channel (filter 530 nm) for detection of the Annexin V-positive cellsand in the propidium iodide, or PI, channel (filter 616 nm) for detection of the PI-positive cells. The figures are from a representative experiment performed three times with similar results. A higher resolution of the images in Figure 5 is provided in the Supplementary Material (Figures S1–S9). TEXT PRINTED IN THE PICTURE: Con-3: Q3: 4,19 (Day 2); Q2: 7,12 (Day 2); Q4: 85,7 (Day 2); Q1: 2,98 (Day 2); Q3: 5,31 (Day3); Q2: 19,5 (Day3); Q4: 58,0 (Day3); Q1: 17,1 (Day3); Q3: 3,54 (Day4); Q2: 17,1 (Day4); Q4: 43,0 (Day4); Q1: 36,4 (Day4) | Con-7: Q3: 6,31 (Day 2); Q2: 7,74 (Day 2); Q4: 82,8 (Day 2); Q1: 3,13 (Day 2); Q3: 8,11 (Day3); Q2: 19,8 (Day3); Q4: 56,8 (Day3); Q1: 15,3 (Day3); Q3: 3,48 (Day4); Q2: 19,7 (Day4); Q4: 36,9 (Day4); Q1: 39,9 (Day4) | Mitoxantrone: Q3: 6,49 (Day 2); Q2: 9,40 (Day 2); Q4: 80,4 (Day 2); Q1: 3,67 (Day 2); Q3: 7,13 (Day3); Q2: 18,9 (Day3); Q4: 61,0 (Day3); Q1: 13,1 (Day3); Q3: 2,72 (Day4); Q2: 17,3 (Day4); Q4: 43,0 (Decimal sign as read) (Day4); Q1: 37,0 (Day4) DOUBTS OF THE COPYIST ABOUT THIS PICTURE: All quadrant values: the print is very small, and the decimal sign may be a comma or a point in every value / Con-3, Day 2, Q4: 85,7 or 86,7 / Con-3, Day 2, Q1: 2,98 or 2,96 / Con-3, Day3, Q3: 5,31 or 6,31 / Con-3, Day3, Q2: 19,5 or 19,6 / Con-3, Day3, Q4: 58,0 or 56,0 / Con-3, Day4, Q3: 3,54 or 3,64 / Con-3, Day4, Q1: 36,4 or 38,4 / Con-7, Day 2, Q3: 6,31 or 8,31 / Con-7, Day 2, Q4: 82,8 or 82,6 / Con-7, Day 2, Q1: 3,13 or 3,15 / Con-7, Day3, Q3: 8,11 or 6,11 / Con-7, Day3, Q2: 19,8 or 19,6 / Con-7, Day3, Q4: 56,8 or 58,8 / Con-7, Day3, Q1: 15,3 or 15,8 / Con-7, Day4, Q3: 3,48 or 3,46 / Con-7, Day4, Q4: 36,9 or 38,9 / Con-7, Day4, Q1: 39,9 or 38,9 / Mitoxantrone, Day 2, Q3: 6,49 or 8,49 / Mitoxantrone, Day 2, Q2: 9,40 or 8,40 / Mitoxantrone, Day 2, Q4: 80,4 or 60,4 / Mitoxantrone, Day 2, Q1: 3,67 or 3,87 / Mitoxantrone, Day3, Q2: 18,9 or 16,9 / Mitoxantrone, Day3, Q4: 61,0 or 81,0 / Mitoxantrone, Day3, Q1: 13,1 or 15,1 […]
SKOV-3 cells were seeded into 12-well plates at a density of 50,000 cells/well and incubated overnight in DMEM/F12 (1:1) containing 3.15 g/L glucose and 10% BCS, at 37 °C and 5% CO2. At the end of the incubation, the culture medium was replaced with a fresh one containing 3.15 g/L glucose and 2% BCS, with or without GnRH analogs or mitoxantrone at a concentration of 1 μΜ, and the cells were further incubated at 37 °C and 5% CO2 for 2, 3 and 4 days. […]

Structure (SMILES)	Apoptotic Cells (%) Mean, Day2	Apoptotic Cells (%) Mean, Day3	Apoptotic Cells (%) Mean, Day4	percentage of apoptotic cells (Q1, Q2 quadrants), day 2 [%]	percentage of apoptotic cells (Q1, Q2 quadrants), day 3 [%]	percentage of apoptotic cells (Q1, Q2 quadrants), day 4 [%]
CCNC(=O)[C@@H]1CCCN1C(=O)[C@H](CCCNC(=N)N)NC(=O)[C@H](CC(C)C)NC(=O)[C@@H](CSSCCC(=O)OCCNCCNc1ccc(NCCNCCO)c2c1C(=O)c1c(O)ccc(O)c1C2=O)NC(=O)[C@H](Cc1ccc(O)cc1)NC(=O)[C@H](CO)NC(=O)[C@H](Cc1c[nH]c2ccccc12)NC(=O)[C@H](Cc1c[nH]cn1)NC(=O)[C@@H]1CCC(=O)N1 [Con-3]	13.68 * %	35.00 * %	49.50 * %	10.1	36.6	53.5
CCNC(=O)[C@@H]1CCCN1C(=O)[C@H](CCCNC(=N)N)NC(=O)[C@H](CC(C)C)NC(=O)[C@@H](CCCCNC(=O)CCCCCNC(=O)CCSSCC(=O)OCCNCCNc1ccc(NCCNCCO)c2c1C(=O)c1c(O)ccc(O)c1C2=O)NC(=O)[C@H](Cc1ccc(O)cc1)NC(=O)[C@H](CO)NC(=O)[C@H](Cc1c[nH]c2ccccc12)NC(=O)[C@H](Cc1c[nH]cn1)NC(=O)[C@@H]1CCC(=O)N1 [Con-7]	13.81 * %	33.53 * %	51.17 * %	10.87	35.1	59.6
O=C1c2c(O)ccc(O)c2C(=O)c2c(NCCNCCO)ccc(NCCNCCO)c21 [mitoxantrone]	14.26 * %	33.60 * %	50.10 * %	13.1	32	54.3
